Reference: patent publication US20230066946A1, “1,5-DIPHENYLPYRAZOLYL-3-OXYALKYL ACIDS AND 1-PHENYL-5-THIENYLPYRAZOLYL-3-OXYALKYL ACIDS AND THE USE THEREOF FOR CONTROL OF UNWANTED PLANT GROWTH” (Bayer Aktiengesellschaft, priority 2019, published 2023)

Columns and labels:
MATIN [1] = experiment: Post-emergence herbicidal action against MATIN; assay type: in vivo, Matricaria inodora; conditions: visual rating about 3 weeks after treatment
How it was run: (§1)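 Weeds grown in sandy loam under greenhouse conditions were sprayed at the one-leaf stage, 2-3 weeks after sowing. Compounds were applied as WP or EC formulations in water with 0.5% additive at 600 L/ha, at 1280 or 320 g/ha. Activity was rated visually about 3 weeks later against untreated controls (0-100%).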

harmful plants = experiment: Post-emergence herbicidal action, summary of Tables 5.1-5.16; assay type: in vivo; conditions: result in words
Protocol: Seeds of mono- and dicotyledonous weed plants are placed in plastic pots in sandy loam soil (twin sowing with one species each of mono- or dicotyledonous weed plants per pot), covered with soil and cultivated in a greenhouse under controlled growth conditions. 2 to 3 weeks after sowing, the test plants are treated at the one-leaf stage. The compounds of the invention, formulated in the form of wettable powders (WP) or as emulsion concentrates (EC), are applied to the green parts of the plants as aqueous suspension or emulsion with addition of 0.5% additive at a water application rate equivalent to 600 litres per hectare. After the test plants have been kept in the greenhouse under optimum growth conditions for about 3 weeks, the activity of the preparations is rated visually in comparison to untreated controls. For example, 100% activity=the plants have died, 0% activity=like control plants. Tables 5.1-5.16 below show the effects of selected compounds of the general formula (I) according to Tables 1 to 3 on various harmful plants at an application rate corresponding to 1280 or 320 g/ha, which have been obtained by the aforementioned experimental method. As the results from Tables 5.1-5.16 show, compounds of the invention have good herbicidal post-emergence efficacy against a broad spectrum of weed grasses and weeds. […] For example, compounds Nos. I-002, I-006, I-022, I-056 and I-072 applied by the post-emergence method have very good herbicidal action (80% to 100% herbicidal action) against harmful plants such as Alopecurus myosuroides, Amaranthus retroflexus, Matricaria inodora, Setaria viridis, Pharbitis purpurea and Stellaria media at an application rate of 1.28 kg of active substance or less per hectare.

ECHCG [2] = experiment: Pre-emergence herbicidal action against ECHCG; assay type: in vivo, Echinochloa crus-galli; conditions: scored visually after about 3 weeks vs untreated controls, 100% = plants have died, 0% = like control plants
How it was run: (§2)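 Scoring is visual, in percent relative to untreated pots, roughly 3 weeks after soil-surface application. Rates were 1280 or 320 g/ha, delivered as WP or EC preparations with 0.5% additive in 600 L/ha water onto freshly sown, covered sandy loam.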

SETVI [3] = experiment: Pre-emergence herbicidal action against SETVI; assay type: in vivo, Setaria viridis; conditions: 1280 g/ha, scored visually after about 3 weeks vs untreated controls
How it was run: as §2

STEME [4] = experiment: Pre-emergence herbicidal action against STEME; assay type: in vivo, Stellaria media; conditions: scored visually after about 3 weeks vs untreated controls
How it was run: as §2

SETVI [5] = experiment: Post-emergence herbicidal action against SETVI; assay type: in vivo, Setaria viridis; conditions: 1280 g/ha, post-emergence at one-leaf stage, rated visually after about 3 weeks vs untreated controls
How it was run: as §1

AMARE [6] = experiment: Pre-emergence herbicidal action against AMARE; assay type: in vivo, Amaranthus retroflexus; conditions: scored visually after about 3 weeks vs untreated controls; for Pre-emergence action against AMARE in %: 1280 g/ha; for Pre-emergence action at 320 g/ha against AMARE in %: 100% = plants have died, 0% = like control plants
How it was run: as §2

STEME [7] = experiment: Post-emergence herbicidal action against STEME; assay type: in vivo, Stellaria media; conditions: visual rating about 3 weeks after treatment
How it was run: as §1

AMARE [8] = experiment: Post-emergence herbicidal action against AMARE; assay type: in vivo, Amaranthus retroflexus; conditions: visual rating about 3 weeks after treatment
How it was run: as §1

ALOMY = experiment: Post-emergence herbicidal action against ALOMY; assay type: in vivo, Alopecurus myosuroides; conditions: 1280 g/ha, post-emergence at one-leaf stage, rated visually after about 3 weeks vs untreated controls
Protocol: (§3) [table] Seeds of mono- and dicotyledonous weed plants are placed in plastic pots in sandy loam soil (twin sowing with one species each of mono- or dicotyledonous weed plants per pot), covered with soil and cultivated in a greenhouse under controlled growth conditions. 2 to 3 weeks after sowing, the test plants are treated at the one-leaf stage. The compounds of the invention, formulated in the form of wettable powders (WP) or as emulsion concentrates (EC), are applied to the green parts of the plants as aqueous suspension or emulsion with addition of 0.5% additive at a water application rate equivalent to 600 litres per hectare. After the test plants have been kept in the greenhouse under optimum growth conditions for about 3 weeks, the activity of the preparations is rated visually in comparison to untreated controls. For example, 100% activity=the plants have died, 0% activity=like control plants. Tables 5.1-5.16 below show the effects of selected compounds of the general formula (I) according to Tables 1 to 3 on various harmful plants at an application rate corresponding to 1280 or 320 g/ha, which have been obtained by the aforementioned experimental method.

VERPE [9] = experiment: Post-emergence herbicidal action against VERPE; assay type: in vivo, Veronica persica; conditions: 320 g/ha, visual rating about 3 weeks after treatment
How it was run: as §1

MATIN [10] = experiment: Pre-emergence herbicidal action against MATIN; assay type: in vivo, Matricaria inodora; conditions: 1280 g/ha, scored visually after about 3 weeks vs untreated controls
Text: (§4) Seeds of mono- and dicotyledonous weed plants are placed in plastic pots in sandy loam soil (doubly sown with one species each of mono- or dicotyledonous weed plants per pot) and covered with soil. The compounds of the invention, formulated in the form of wettable powders (WP) or as emulsion concentrates (EC), are then applied onto the surface of the covering soil as aqueous suspension or emulsion with addition of 0.5% additive at a water application rate equivalent to 600 litres per hectare. After the treatment, the pots are placed in a greenhouse and kept under good growth conditions for the trial plants. After about 3 weeks, the effect of the preparations is scored visually in comparison with untreated controls as percentages. For example, 100% activity=the plants have died, 0% activity=like control plants. [table] Tables 4.1-4.15 below show the effects of selected compounds of the general formula (I) according to Tables 1 to 3 on various harmful plants at an application rate corresponding to 1280 or 320 g/ha, which have been obtained by the aforementioned experimental method.

VIOTR [11] = experiment: Pre-emergence herbicidal action against VIOTR; assay type: in vivo, Viola tricolor; conditions: 1280 g/ha, scored visually after about 3 weeks vs untreated controls
Text: as §4

VIOTR [12] = experiment: Post-emergence herbicidal action against VIOTR; assay type: in vivo, Viola tricolor; conditions: 320 g/ha, visual rating about 3 weeks after treatment
How it was run: as §1

PHBPU = experiment: Post-emergence herbicidal action against PHBPU; assay type: in vivo, Pharbitis purpurea; conditions: 320 g/ha, visual rating about 3 weeks after treatment
How it was run: as §1

POLCO [13] = experiment: Post-emergence herbicidal action against POLCO; assay type: in vivo, Polygonum convolvulus; conditions: 320 g/ha, visual rating about 3 weeks after treatment
Protocol: as §3

HORMU = experiment: Post-emergence herbicidal action against HORMU; assay type: in vivo, Hordeum murinum; conditions: 320 g/ha, visual rating about 3 weeks after treatment
Protocol: as §3

ECHCG [14] = experiment: Post-emergence herbicidal action against ECHCG; assay type: in vivo, Echinochloa crus-galli; conditions: 1280 g/ha, post-emergence at one-leaf stage, rated visually after about 3 weeks vs untreated controls
How it was run: as §1

VERPE [15] = experiment: Pre-emergence herbicidal action against VERPE; assay type: in vivo, Veronica persica; conditions: 320 g/ha, scored visually after about 3 weeks vs untreated controls
How it was run: as §2

POLCO [16] = experiment: Pre-emergence herbicidal action against POLCO; assay type: in vivo, Polygonum convolvulus; conditions: 320 g/ha, scored visually after about 3 weeks vs untreated controls
Text: as §4

Compound	Post-emergence action against MATIN in % (MATIN [1]; 1280 g/ha)	herbicidal efficacy against harmful plants when applied post-emergence (harmful plants)	Pre-emergence action at 1280 g/ha against ECHCG in % (ECHCG [2])	Pre-emergence action against SETVI in % (SETVI [3])	Pre-emergence action against STEME in % (STEME [4]; 1280 g/ha)	Pre-emergence action against AMARE in % (AMARE [6])	Post-emergence action against STEME in % (STEME [7]; 1280 g/ha)	Post-emergence action against AMARE in % (AMARE [8]; 1280 g/ha)	Post-emergence action against VERPE in % (VERPE [9])	Pre-emergence action at 320 g/ha against AMARE in % (AMARE [6])	Post-emergence action against STEME in % (STEME [7]; 320 g/ha)	Post-emergence action against VIOTR in % (VIOTR [12])	Post-emergence action against PHBPU in % (PHBPU)	Post-emergence action against POLCO in % (POLCO [13])	Post-emergence action against HORMU in % (HORMU)	Post-emergence action against MATIN in % (MATIN [1]; 320 g/ha)	Post-emergence action against ECHCG in % (ECHCG [14])	Pre-emergence action against STEME in % (STEME [4]; 320 g/ha)	Pre-emergence action against VERPE in % (VERPE [15])	Post-emergence action against AMARE in % (AMARE [8]; 320 g/ha)	further results
COC(=O)CNC(=O)C(C)Oc1nn(-c2ccccc2)c(-c2ccc(F)cc2)c1Cl (stereo not drawn) [III-058]	100%	very good herbicidal efficacy	90%	90%	100%	100%	100%	90%	–	–	–	–	–	–	–	–	–	–	–	–	Post-emergence action against SETVI in % (SETVI [5]): 100%
C1COCCN1.O=C(O)COc1nn(-c2cccc(F)c2)c(-c2ccccc2)c1I [II-04]	–	very good herbicidal efficacy	100%	–	100%	100%	100%	–	–	–	–	–	–	–	–	–	–	–	–	–	–
COC(=O)COc1nn(-c2cccc(Cl)c2)c(-c2cccc(F)c2)c1C#N [I-046]	80%	–	–	–	–	90%	80%	80%	80%	90%	80%	80%	80%	–	–	–	–	–	–	–	Post-emergence action against ALOMY in % (ALOMY): 80%; Pre-emergence action against MATIN in % (MATIN [10]): 90%; Pre-emergence action against VIOTR in % (VIOTR [11]): 90%
O=C(O)COc1nn(-c2c(F)cccc2F)c(-c2ccc(F)c(F)c2)c1Br [I-137]	90%	–	100%	100%	100%	100%	100%	90%	90%	90%	90%	80%	90%	90%	80%	80%	100%	90%	90%	80%	Post-emergence action against SETVI in % (SETVI [5]): 90%; Pre-emergence action against POLCO in % (POLCO [16]): 100%
COC(=O)COc1nn(-c2ccccc2)c(-c2ccc(F)cc2)c1C#N [I-014]	–	very good herbicidal efficacy	–	–	–	–	–	–	–	100%	80%	–	80%	80%	–	–	–	–	100%	80%	–
CCOC(=O)COc1nn(-c2ccccc2F)c(-c2ccccc2)c1[N+](=O)[O-] [I-075]	–	–	–	–	–	–	–	–	80%	–	–	100%	90%	80%	80%	80%	–	80%	–	–	Pre-emergence action against POLCO in % (POLCO [16]): 80%
COC(=O)COc1nn(-c2ccccc2F)c(-c2ccc(F)c(F)c2)c1Br [I-055]	100%	–	100%	100%	100%	100%	100%	90%	80%	100%	80%	100%	80%	80%	80%	–	100%	100%	90%	90%	Pre-emergence action against POLCO in % (POLCO [16]): 90%
COC(=O)[C@H](C)Oc1nn(-c2ccccc2)c(-c2ccc(F)cc2)c1C#N [I-141]	90%	–	100%	100%	90%	100%	90%	90%	–	90%	90%	90%	–	–	80%	80%	100%	80%	–	90%	–
